Data from patent US20100166603A1, “Powder Sterilization” (NOXILIZER, Inc., priority 2008, published 2010).
Several values for one entry are separate records, joined by “and”; a condition that tells them apart may be missing. Equal entries are not always repeated.

Legend:
[1] = test system: spores in PVP/spore mixture powder; experiment: NO2 gas sterilization of tumbled PVP/spore mixture powder in humid air, CFU recovery; format: cell-based; conditions: for spore concentration after treatment: two vials present; for CFU per 100 mg: single plates
Experimental: A test to determine whether 100 mg of (PVP) and spore mixture powder could be sterilized using an NO2 gas sterilization process that incorporates a powder tumbling system. The NO2 used was a 10% NO2/90% N2 mixture.
A 2.2 cm diameter circular Tyvek® pieces was likewise cut and the Tyvek® piece was placed between the cap and the silicone septum ring forming a partially breathable cap on the vials, while maintaining the self-healing characteristic of the silicone septum.
The colony forming units (CFU's) recovered from each spore mixture were counted. Multiple plates and dilutions from a given biological indicator (BI) were averaged.
Vials were placed into a cylindrical mesh container. The container was in turn placed into a rock polisher that was configured to spin the container and the vials therein.
The second vial contained 100 mg of PVP/spore mixture with 10 3 mm glass beads (weight of the beads excluded). […]
After the runs, the samples were processed and CFUs were counted after approximately 48 hours of incubation at 35° C.-39° C.

spore population = experiment: NO2 gas exposure of powder under dry conditions (dry air diluent), spore inactivation; format: cell-based; conditions: 10 mg/l NO2 gas, exposure 60 to 600 minutes
Description: FIG. 10 is a log-linear scale of population against exposure time for an experiment carried out with a dry air diluent.

[2] = Run 2 NX1080423A, 3.0 mm, 5 beads, 0.4% NO2, humid air to 25.13 in Hg, 40 min dwell
[3] = Run 2 NX1080423A, 3.0 mm, 10 beads, 0.4% NO2, humid air to 25.13 in Hg, 40 min dwell
[4] = Run 4 NX1080424B, 3.0 mm beads, Table 4 cycle, humid air per Table 5
[5] = Run 5 NX1080429A, 3.0 mm beads, Table 4 cycle, humid air per Table 5
[6] = Run 6 NX1080429B, 3.0 mm beads, Table 4 cycle, humid air per Table 5
[7] = Run 7 NX1080429C, 3.0 mm beads, Table 4 cycle, humid air per Table 5

[O]N=O [NO2, nitrogen dioxide]
final spore concentration ([1]; 0.5 mm bead samples, three pulses, 21 in Hg of humidity added): 4.0×10^−1 spores/100 mg | spore concentration after treatment ([1]; 0.5 mm bead samples, 17 in Hg of humidity added): 1.3×10^2 spores/100 mg | spore concentration after treatment ([1]; 0.5 mm bead samples, 21 in Hg of humidity added): 1.8×10^3 spores/100 mg | spore concentration after treatment ([1]; 0.5 mm bead samples, 23 in Hg of humidity added): 3.5×10^2 spores/100 mg | Average per 100 mg ([1]; Run 1 NX1080422A, 0.5 mm beads, first vial, 0.4% NO2, humid air to 25.13 in Hg, 40 min dwell): 2.4 × 10^4 per 100 mg | Average per 100 mg ([1]; Run 1 NX1080422A, 0.5 mm beads, second vial, 0.4% NO2, humid air to 25.13 in Hg, 40 min dwell): 6.2 × 10^4 per 100 mg | Average per 100 mg [1, 2]: >2.0 × 10^5 per 100 mg | CFU per 100 mg [1, 2]: >2.0 × 10^5 CFU per 100 mg | Average per 100 mg [1, 3]: >2.0 × 10^5 per 100 mg | CFU per 100 mg [1, 3]: >2.0 × 10^5 CFU per 100 mg | Average per 100 mg ([1]; Run 3 NX1080424A, 0.5 mm beads, pre-humidity 10 min, 0.2%+0.2% NO2 with humid air, 10 min dwell, cycle repeats 2): 3.4 × 10^3 per 100 mg | Average per 100 mg ([1]; Run 3 NX1080424A, 3.0 mm beads, pre-humidity 10 min, 0.2%+0.2% NO2 with humid air, 10 min dwell, cycle repeats 2): 8.6 × 10^4 per 100 mg | Average per 100 mg ([1]; Run 4 NX1080424B, 0.5 mm beads, Table 4 cycle: pre-NO2 0.4% 10 min, 0.2%+0.2% NO2, humid air per Table 5, 10 min dwell): 1.8 × 10^3 per 100 mg | Average per 100 mg [1, 4]: 4.0 × 10^4 per 100 mg | CFU per 100 mg [1, 4]: 4.0 × 10^4 CFU per 100 mg and 3.2 × 10^4 CFU per 100 mg and 5.4 × 10^4 CFU per 100 mg and 3.5 × 10^5 CFU per 100 mg | Average per 100 mg ([1]; Run 5 NX1080429A, 0.5 mm beads, Table 4 cycle, humid air per Table 5): 3.5 × 10^2 per 100 mg | Average per 100 mg [1, 5]: 3.6 × 10^4 per 100 mg | CFU per 100 mg [1, 5]: 3.5 × 10^4 CFU per 100 mg and 3.6 × 10^4 CFU per 100 mg | Average per 100 mg ([1]; Run 6 NX1080429B, 0.5 mm beads, Table 4 cycle, humid air per Table 5): 1.1 × 10^2 per 100 mg | Average per 100 mg [1, 6]: 1.9 × 10^4 per 100 mg | CFU per 100 mg [1, 6]: 1.6 × 10^4 CFU per 100 mg and 1.8 × 10^4 CFU per 100 mg and 2.7 × 10^4 CFU per 100 mg | Average per 100 mg ([1]; Run 7 NX1080429C, 0.5 mm beads, Table 4 cycle, humid air per Table 5): 1.3 × 10^2 per 100 mg | Average per 100 mg [1, 7]: 2.3 × 10^4 per 100 mg | CFU per 100 mg [1, 7]: 2.1 × 10^4 CFU per 100 mg and 2.0 × 10^4 CFU per 100 mg and 2.9 × 10^4 CFU per 100 mg and 2.3 × 10^4 CFU per 100 mg | Average per 100 mg ([1]; Run 8 NX1080501B, 0.5 mm beads, one vial, Table 4 cycle, humid air and repeats per Table 5): 1.8 × 10^2 per 100 mg | Average per 100 mg ([1]; Run 9 NX1080501C, 0.5 mm beads, one vial, Table 4 cycle, humid air and repeats per Table 5): 3.3 × 10^1 per 100 mg | Average per 100 mg ([1]; Run 10 NX1080501D, 0.5 mm beads, one vial, Table 4 cycle, humid air and repeats per Table 5): 5.0 × 10^0 per 100 mg | Average per 100 mg ([1]; Run 11 NX1080501E, 0.5 mm beads, one vial, Table 4 cycle, humid air and repeats per Table 5): 1.3 × 10^2 per 100 mg | Average per 100 mg ([1]; Run 12 NX1080505A, 0.5 mm beads, one vial, Table 4 cycle, humid air and repeats per Table 5): 2.2 × 10^1 per 100 mg | Average per 100 mg ([1]; Run 13 NX1080505B, 0.5 mm beads, one vial, Table 4 cycle, humid air and repeats per Table 5): 2.0 × 10^0 per 100 mg | Average per 100 mg ([1]; Run 14 NX1080505C, 0.5 mm beads, one vial, Table 4 cycle, humid air and repeats per Table 5): 4.0 × 10^−1 per 100 mg | Average per 100 mg ([1]; Run 15 NX1080505D, 0.5 mm beads, one vial, Table 4 cycle, humid air and repeats per Table 5): 8.0 × 10^0 per 100 mg | lethality (spore population): acceptable lethality
